{"source": "patent US5562894A", "about": "“Amino-acyl-type and catecholamine-type contrast agents for MRI” (Regents of the University of California, priority 1993, dated 1996)", "key": {"[1]": {"settings": "T1-weighted spin-echo, 0.5 Tesla; cited from earlier work"}, "[2]": {"settings": "in vivo; cited from earlier work"}, "[3]": {"test": "T1-weighted spin-echo MRI of a rat, region-of-interest % enhancement (Examples 8 and 9)", "type": "in vivo, Sprague-Dawley rat", "experimental": "FIG. 5 is a photograph of T1-weighted magnetic resonance images of a rat obtained before, and at 0, 5, 10, 15, 25, 45 and 60 minutes after the injection of Gd-DTPA-bis(phenylalanine) at a dose of 0.1 mmol/kg body weight. The images are 60 mm×60 mm×3 mm thick slices in the coronal plane. The region covered extends from just above the heart to somewhat below the liver. Imaging parameters are indicated along the left of the Figure and include the repetition time ([…]), echo time (6000 microseconds), number of signal averages (4), and the image matrix size (128×256).\nFIGS. 6A and 6B are photographs of T1-weighted magnetic resonance images obtained as described in FIG. 5A and 5B, except that Gd-DTPA-bis(phenylalanine ethyl ester) was used as the contrast agent.\nA 300-g male Sprague-Dawley rat was anesthetized with an intraperitoneal injection of a mixture of ketamine and diazepam, and a catheter was inserted into a lateral tail vein. The rat was then placed in a 5-cm inside diameter (i.d.) imaging coil in the bore of a 2-Tesla imager-spectrometer system (GE CSI; General Electric Co., Fremont, Calif.). A T1-weighted spin-echo image of the animal's abdomen in the coronal plane was then obtained (TR 300 ms; Te 6 ms; 128-256 image matrix; NEX=4; 3 mm slice thickness). Next, 0.6 g of the Gd-DTPA-bis(phenylalanine) solution described in Example 7 was injected via the catheter. A series of post-injection images were obtained. […] See also, FIGS. 5A and 5B.\nThe imaging was carried out analogously to Example 8. […] See also, FIGS. 6A and 6B."}, "[4]": {"test": "Comparative MRI of two preparations of Gd-DTPA-bis(phenylalanine ethyl ester) (Example 11)", "type": "in vivo, mice", "experimental": "FIG. 8 is a photograph of T1-weighted magnetic resonance images obtained as in FIG. 6, except that a different preparation of Gd-DTPA-bis(phenylalanine ethyl ester) (sometimes abbreviated Gd-DTPA-(PheOEt)2) was used.\nFreshly prepared material, whose pH was carefully adjusted to neutrality, and which was stored in the cold, was determined to be about 90% Gd-DTPA-(PheOEt)2, the remainder being mostly Gd-DTPA-(PheOEt) (Phe)."}, "[5]": {"type": "in vitro ADME, rat", "experimental": "(§1) Aliquots were withdrawn at various time intervals and examined by HPLC [PRP-1 column; water-acetonitrile gradient; 25 mM ammonium formate, pH 7 mobile phase]."}, "[6]": {"test": "Hydrolysis of the esters in pH 7.4 HEPES buffer", "type": "physicochemical", "settings": "pH 7.4, 25° C., each step", "experimental": "as §1"}, "[7]": {"test": "In vivo MRI, % enhancement by region of interest (Example 19)", "design": "species or system Sprague-Dawley rats", "experimental": "Magnetic resonance imaging was carried out using a CSI 2-Tesla imager (GE, Inc., Fremont, Calif.) equipped with a 5-cm diameter distributed-capacitance imaging coil. A T1-weighted (TR 300/TE 6; NEX 4) spin-echo sequence was used.\nSprague-Dawley rats (250-350 g; n=4 for each contrast agent) were anesthetized with ketamine (90 mg/kg) and diazepam (10 mg/kg) and fitted with an intravenous catheter in a lateral tail vein. Anesthesia was maintained during imaging using pentobarbital delivered via an intraperitoneal catheter.\nThe anesthetized animal was placed in the imaging coil and secured with tape. The coil containing the animal then was placed in the magnet bore, and the magnetic field was shimmed. Pre-contrast images were obtained. The contrast agent (100 μmol/kg) then was injected via the tail-vein catheter, and additional images were obtained at various intervals for up to 90 min post injection.\nContrast agent enhancement was determined by measuring the mean signal intensity (SI) in operator-designated regions of interest (ROI). These were normalized to the pre-injection value for each ROI according to the following formula:\n% Enhancement=100×(SIpost -SIpre)/SIpre"}, "[8]": {"test_system": "liver transport system or systems inhibitable by BSP", "settings": "cited from earlier work"}, "[9]": {"settings": "rat, in vivo, 6 h; cited from earlier work"}, "[10]": {"settings": "more pure preparation (about 90% bis ester)"}, "[11]": {"settings": "partially hydrolyzed material of FIG. 6 (ca. 45% bis ester)"}}, "data": [{"molecule": "CNC[C@H](O)[C@@H](O)[C@H](O)[C@H](O)CO.CNC[C@H](O)[C@@H](O)[C@H](O)[C@H](O)CO.O=C([O-])CN(CCN(CC(=O)[O-])CC(=O)O)CCN(CC(=O)[O-])CC(=O)O.[Gd+3]", "note": "[Gd-DTPA, gadolinium (III) complex of diethylenetriaminepentaacetic acid]", "values": [{"measurement": "signal enhancement in liver", "setting": "[1]", "value": 16, "unit": "%"}, {"measurement": "distribution (in words)", "setting": "[2]", "value": "distributes in blood plasma and extracellular fluid"}]}, {"molecule": "CCOC(=O)[C@H](Cc1ccccc1)NC(=O)CN(CCN(CCN(CC(=O)[O-])CC(=O)N[C@@H](Cc1ccccc1)C(=O)OCC)CC(=O)[O-])CC(=O)[O-].[Gd+3]", "note": "[Gd-DTPA-bis(phenylalanine ethyl ester), Gd(III)-DTPA-bis(L-phenylalanine ethyl ester)]", "values": [{"measurement": "image enhancement (in words)", "setting": "[3]; 2 Tesla, about 0.1 mmol/kg", "value": "different apparent enhancement in the liver and heart"}, {"measurement": "image region-of-interest % enhancement", "setting": "[3]; heart, 0-3 min post-injection", "value": 86, "unit": "%"}, {"measurement": "image region-of-interest % enhancement", "setting": "[3]; heart, 5-8 min post-injection", "value": 46, "unit": "%"}, {"measurement": "image region-of-interest % enhancement", "setting": "[3]; heart, 15-18 min post-injection", "value": 66, "unit": "%"}, {"measurement": "image region-of-interest % enhancement", "setting": "[3]; heart, 25-38 min post-injection", "value": 48, "unit": "%"}, {"measurement": "image region-of-interest % enhancement", "setting": "[3]; heart, 45-48 min post-injection", "value": 49, "unit": "%"}, {"measurement": "image region-of-interest % enhancement", "setting": "[3]; heart, 60-63 min post-injection", "value": 25, "unit": "%"}, {"measurement": "image region-of-interest % enhancement", "setting": "[3]; liver, 0-3 min post-injection", "value": 70, "unit": "%"}, {"measurement": "image region-of-interest % enhancement", "setting": "[3]; liver, 5-8 min post-injection", "value": 109, "unit": "%"}, {"measurement": "image region-of-interest % enhancement", "setting": "[3]; liver, 15-18 min post-injection", "value": 113, "unit": "%"}, {"measurement": "image region-of-interest % enhancement", "setting": "[3]; liver, 25-38 min post-injection", "value": 99, "unit": "%"}, {"measurement": "image region-of-interest % enhancement", "setting": "[3]; liver, 45-48 min post-injection", "value": 71, "unit": "%"}, {"measurement": "image region-of-interest % enhancement", "setting": "[3]; liver, 60-63 min post-injection", "value": 44, "unit": "%"}, {"measurement": "image region-of-interest % enhancement", "setting": "[3]; muscle (Table 3: skeletal muscle), 0-3 min post-injection", "value": 50, "unit": "%"}, {"measurement": "image region-of-interest % enhancement", "setting": "[3]; muscle (Table 3: skeletal muscle), 5-8 min post-injection", "value": 30, "unit": "%"}, {"measurement": "image region-of-interest % enhancement", "setting": "[3]; muscle (Table 3: skeletal muscle), 15-18 min post-injection", "value": 31, "unit": "%"}, {"measurement": "image region-of-interest % enhancement", "setting": "[3]; muscle (Table 3: skeletal muscle), 25-38 min post-injection", "value": 26, "unit": "%"}, {"measurement": "image region-of-interest % enhancement", "setting": "[3]; muscle (Table 3: skeletal muscle), 45-48 min post-injection", "value": 16, "unit": "%"}, {"measurement": "image region-of-interest % enhancement", "setting": "[3]; muscle (Table 3: skeletal muscle), 60-63 min post-injection", "value": 16, "unit": "%"}, {"measurement": "heart enhancement", "setting": "[4]; [10]", "value": 74, "unit": "%"}, {"measurement": "liver enhancement", "setting": "[4]; [10]", "value": 163, "unit": "%"}, {"measurement": "factor by which degree of liver enhancement was greater", "setting": "[4]; more pure preparation vs FIG. 6 material", "value": "about three"}, {"measurement": "heart enhancement", "setting": "[4]; [11]", "value": 84, "unit": "%"}, {"measurement": "liver enhancement", "setting": "[4]; [11]", "value": 53, "unit": "%"}, {"measurement": "ester hydrolysis in rat plasma (in words)", "setting": "[5]", "value": "very rapidly hydrolyzed in rat plasma"}, {"measurement": "half-time of hydrolysis in aqueous buffer", "setting": "[6]", "value": "of the order of days"}]}, {"molecule": "COc1ccc(CCNC(=O)CN(CCN(CCN(CC(=O)[O-])CC(=O)NCCc2ccc(OC)c(OC)c2)CC(=O)[O-])CC(=O)[O-])cc1OC.[Gd+3]", "note": "[Gd-DTPA-(3,4-DMPE)2]", "values": [{"measurement": "lung enhancement", "setting": "[7]; 100 μmol/kg i.v., n=4", "value": "141%±4%"}, {"measurement": "enhancement of organs (in words)", "setting": "[7]; MRI of rats", "value": "useful enhancement of heart, lungs, kidney and liver"}]}, {"molecule": "O=C([O-])C(NCCNC(C(=O)[O-])c1ccccc1[O-])c1ccccc1[O-].[Fe+3]", "note": "(stereo not shown) [Fe-EHPG]", "values": [{"measurement": "liver transport (in words)", "setting": "[8]", "value": "transported in the liver by a system or systems inhibitable by BSP"}]}, {"molecule": "O=C([O-])CN(CCN(CC(=O)[O-])CC(=O)[O-])CCN(CC(=O)[O-])C(COCc1ccccc1)C(=O)[O-].[Gd+3]", "note": "(stereo not shown) [Gd-BOPTA]", "values": [{"measurement": "signal enhancement in liver", "setting": "[1]", "value": 48, "unit": "%"}, {"measurement": "biliary excretion", "setting": "[9]", "value": "38.6 % of injected dose"}]}, {"molecule": "CCOC(=O)[C@@H](Cc1ccccc1)NC(=O)CN(CCN(CCN(CC(=O)[O-])CC(=O)N[C@H](Cc1ccccc1)C(=O)OCC)CC(=O)[O-])CC(=O)[O-].[Gd+3]", "note": "[Gd-DTPA-(D-PheOEt)2, Gd(III)-DTPA-bis(D-phenylalanine ethyl ester)]", "values": [{"measurement": "ester hydrolysis in rat plasma (in words)", "setting": "[5]", "value": "resistant to even the first step of ester hydrolysis"}, {"measurement": "t1/2 of ester hydrolysis in rat plasma", "setting": "[5]", "value": "None Detected"}, {"measurement": "half-time of hydrolysis in aqueous buffer", "setting": "[6]", "value": "of the order of days"}]}, {"molecule": "CC(=O)N([O-])CCCCCNC(=O)CCC(=O)N([O-])CCCCCNC(=O)CCC(=O)N([O-])CCCCCNC(=O)CC(CC(=O)[O-])c1ccccc1.[Fe+3].[H+]", "note": "(stereo not shown) [Fe-PGDF]", "values": [{"measurement": "liver transport (in words)", "setting": "[8]", "value": "transported in the liver by a system or systems inhibitable by BSP"}]}]}
